Assay results published in patent US12370143B2, “Compound or salt thereof and lipid particles” (FUJIFILM Corporation, priority 2018, dated 2025).

Legend:
[1] = Particle size of nucleic acid lipid particles (Luc2-siRNA); format: physicochemical; settings: compound/DSPC/cholesterol/DMG-PEG2000 50/10/38.5/1.5
How it was run: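 Lipid particles formed from oil phase (test lipid/DSPC/cholesterol/DMG-PEG2000, 50/10/38.5/1.5 molar, 20 mmol/L total in ethanol) micromixed 1:3 with Luc2-siRNA in pH 4 acetate buffer (19.7 μmol/L); siRNA/lipid 339 mol/mol, PBS-diluted and dialyzed. Size measured on ELS-Z2 dynamic light scattering.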

[2] = Encapsulation rate of siRNA in nucleic acid lipid particles (Luc2-siRNA); format: physicochemical; settings: compound/DSPC/cholesterol/DMG-PEG2000 50/10/38.5/1.5
How it was run: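 Encapsulation rate was calculated as (total − outer-phase siRNA)/total ×100. Total siRNA was quantified spectrophotometrically after lipid-dissolving ethanol precipitation, and unencapsulated siRNA by RiboGreen in TE (ex 485/em 535 nm). The particles were test lipid/DSPC/cholesterol/DMG-PEG2000 at 50/10/38.5/1.5, formed by microfluidic mixing with Luc2-siRNA at pH 4 and dialyzed against PBS.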

[3] = system: Factor VII (FVII) protein; test: Measurement of Factor VII (FVII) protein in mouse plasma after FVII-siRNA lipid particles; format: in vivo, C57BL6/J mice; settings: 0.1 mg/kg caudal vein, plasma 24 hours after administration, PBS group = 100%
Experimental: (§1) The Factor VII (FVII) protein was measured according to the method described in Nature Biotechnology (2010) 28, 172-176. C57BL6/J mice were randomly grouped (n=3). A dispersion liquid of nucleic acid lipid particles was prepared by the same method as that in <Preparation of nucleic acid lipid particles>, except that FVII-siRNA having the sequence described in Molecular Therapy (2009) 17, p. 878 was used instead of Luc-siRNA. The dispersion liquid was administered to the caudal vein of the mice at a dosage of 0.1 mg/kg. For comparison, PBS at the same volume was administered to the caudal vein of the mice. Twenty four hours after the administration, blood was collected from the caudal vena cava, thereby obtaining plasma. The amount of FVII protein was quantified using the obtained plasma and a Biophen FVII assay kit (Aniara).
The FVII amount in the plasma sample of each individual in the PBS administration group was regarded as 100%, and the ratio of the FVII amount in the plasma sample of each individual to 100% was adopted as a measurement value.

[4] = Particle size of nucleic acid lipid particles (FVII-siRNA); format: physicochemical
Experimental: The compounds described in Table 2, L-α-distearoylphosphatidylcholine (trade name: COATSOME® MC-8080; NOF corporation), cholesterol (trade name: Choesterol HP; NIPPON FINE CHEMICAL CO., LTD.), and 1,2-dimyristoyl-rac-glycero-3-(methylpolyoxyethylene 2000) (hereinafter, called DMG-PEG2000) (trade name: SUNBRIGHT® GM-020; NOF corporation) were dissolved in ethanol at a molar ratio of 50/10/38.5/1.5 such that the total lipid concentration became 20 mmol/L, thereby obtaining an oil phase.
An aqueous nucleic acid solution obtained by dissolving 5 mg of Luc2-siRNA having the sequence described in Biomacromolecules (2013) 14, p. 3905 in 1 mL of sterile water was diluted with 10 mmol/L acetate buffer having a pH 4 such that the nucleic acid concentration became 19.7 μmol/L, thereby obtaining a water phase. Then, the water phase and the oil phase were mixed together by a micromixer (see JP5288254B) using a syringe pump such that the volume ratio of water phase:oil phase became 3:1 (final ratio of siRNA/lipid=339 (mol/mol)), and the mixed solution was diluted 2× with PBS, thereby obtaining a dispersion liquid of nucleic acid lipid particles. The dispersion liquid was dialyzed (Slide-A-Lyzer G2, MWCO: 10 kD, Thermo Fisher Scientific) using a phosphate buffered saline such that ethanol was removed, thereby obtaining nucleic acid lipid particles.
The particle size of the nucleic acid lipid particles was measured by the same method as that in <Preparation of lipid particles>.
as §1

[5] = Nucleic acid encapsulation rate of nucleic acid lipid particles (FVII-siRNA); format: physicochemical
Experimental: A 3 mol/L aqueous sodium acetate solution (30 μL) and 9 μL of glycogen were added to 60 μL of the lipid particles retaining nucleic acids, and then 1.5 mL of ethanol was added thereto such that only the nucleic acids were precipitated while the lipid was dissolved. Then, the supernatant was removed by centrifugation. After the precipitates were air-dried for 15 minutes or longer, water was added thereto such that the precipitates were redissolved, and the concentration thereof was measured using Nanodrop NF1000 (Thermo Fisher Scientific), thereby quantifying the total nucleic acid concentration.
The nucleic acid concentration was quantified using a Quant-iT RiboGreen RNA Assay Kit (Thermo Fisher Scientific) according to the protocol. First, a 20×TE buffer included in the above kit was diluted with water, thereby obtaining a 1×TE buffer. TE represents Tris/EDTA (ethylenediaminetetraacetic acid). In order to quantify only the nucleic acid in the outer water phase, the dispersion liquid of lipid particles retaining nucleic acids was diluted 10,000× with the 1×TE buffer.
The 10,000× diluted dispersion liquid of lipid particles (100 μL) was put in a 96-well plate, then 100 μL of a RiboGreen reagent (reagent included in the Quanti-iT Ribogreen RNA Assay Kit described above) diluted 2000× with the 1×TE buffer was added to a sample, and fluorescence (excitation wavelength: 485 nm, fluorescence wavelength: 535 nm) was measured using a plate reader Infinit EF200 (TECAN), thereby quantifying the nucleic acid concentration in the outer water phase.
By using the total nucleic acid concentration obtained through the above steps and the quantified nucleic acid concentration in the outer water phase, the nucleic acid encapsulation rate of the nucleic acid lipid particles was calculated according to the following Equation. Nucleic acid encapsulation rate (%)=(total nucleic acid concentration−nucleic acid concentration in outer water phase)/total nucleic acid concentration×100 The results are shown in Table 2.
as §1

Row | SMILES | Particle size (nm) [1] | Nucleic acid encapsulation rate [2] | Particle size (nm) [4] | Nucleic acid encapsulation rate [5] | Relative amount of FVII protein (%) [3]
1 | CCCCC/C=C\C/C=C\CCCCCCCCC(CCCCCCCC/C=C\C/C=C\CCCCC)OC(=O)OCCN(CCCCCC)CCN(C)C [Example 37, 2-((2-(Dimethylamino)ethyl)(hexyl)amino)ethyl((6Z,9Z,28Z,31Z)-heptatriaconta-6,9,28,31-tetraen-19-yl)carbonate] | 80.4 nm | 85% | 74.5 nm | 100% | 17%
2 | CCCCCCCCC(CCCCCC)COC(=O)CCCCCCCCC(CCCCCC)OC(=O)OCCN(CCOC(=O)CCCCCCC)CCN(CC)CC (stereo not shown) [Example 99, 2-Hexyldecyl 3-ethyl-12-hexyl-6-(2-(octanoyloxy)ethyl)-10-oxo-9,11-dioxa-3,6-diazahenicosan-21-oate] | 68.9 nm | 81% | 72.3 nm | 79% | 3%
3 | CCCCCCC(CCCCCC)C(=O)OCCCCCCC(CCCCCCOC(=O)C(CCCCCC)CCCCCC)OC(=O)OCCN(CC)CCN(CC)CC [Example 77, 7-(((2-((2-(Diethylamino)ethyl)(ethyl)amino)ethoxy)carbonyl)oxy)tridecane-1,13-diylbis(2-hexyloctanoate)] | 81.9 nm | 88% | 81.2 nm | 76% | 3%
4 | CCCCCCCCC(CCCCCC)COC(=O)CCCC(CCCCCC)OC(=O)OCCN(CCN(CC)CC)C(C)C (stereo not shown) [Example 83, 2-Hexyldecyl 3-ethyl-12-hexyl-6-isopropyl-10-oxo-9,11-dioxa-3,6-diazahexadecan-16-oate] | 83.6 nm | 82% | 85.4 nm | 88% | 13%
5 | CCCCCCCCC(CCCCCC)COC(=O)CCCCCCCC(CCCCCC)OC(=O)OCCN(CCN(CC)CC)C(C)C (stereo not shown) [Example 117, 2-Hexyldecyl 3-ethyl-12-hexyl-6-isopropyl-10-oxo-9,11-dioxa-3,6-diazaicosan-20-oate] | 77.3 nm | 90% | 85.4 nm | 89% | 12%
6 | CCCCC/C=C\C/C=C\CCCCCCCCC(CCCCCCCC/C=C\C/C=C\CCCCC)N(C)CCN(C)C [Comparative Example 9, N1-((6Z,9Z,28Z,31Z)-heptatriaconta-6,9,28,31-tetraen-19-yl)-N1,N2,N2-trimethylethane-1,2-diamine, reference compound] | 58.4 nm | 84% | 60 nm | 71% | 44%
7 | CCCCCCCCC(CCCCCC)COC(=O)CCCCCCCCC(CCCCCC)OC(=O)OCCN(CCN(CC)CC)C(C)C (stereo not shown) [Example 89, 2-Hexyldecyl 3-ethyl-12-hexyl-6-isopropyl-10-oxo-9,11-dioxa-3,6-diazahenicosan-21-oate] | 68.2 nm | 83% | 77.3 nm | 94% | 8%

The next lines start with results.

Row | Particle size (nm) [1] | Nucleic acid encapsulation rate [2] | Particle size (nm) [4] | Nucleic acid encapsulation rate [5] | SMILES | Relative amount of FVII protein (%) [3]
8 | 64.9 nm | 66% | 74.1 nm | 68% | CCCCCCCCC(=O)OCCN(CCOC(=O)OC(CCCCCC)CCCCCCCCC(=O)OCC(CCCCC)CCCCC)CCN(CC)CC (stereo not shown) [Example 130, 2-Pentylheptyl 3-ethyl-12-hexyl-6-(2-(nonanoyloxy)ethyl)-10-oxo-9,11-dioxa-3,6-diazahenicosan-21-oate] | 9%
9 | 63.1 nm | 59% | 63.4 nm | 78% | CCCCC/C=C\C/C=C\CCCCCCCCC(CCCCCCCC/C=C\C/C=C\CCCCC)OC(=O)OCCCN(C)C [Comparative Example 8, 3-(Dimethylamino)propyl((6Z,9Z,28Z,31Z)-heptatriaconta-6,9,28,31-tetraen-19-yl)carbonate, reference compound] | 58%
10 | 73.8 nm | 76% | 77.8 nm | 80% | CCCCCCCC(=O)OCCN(CCOC(=O)OC(CCCCCC)CCCCCCCCC(=O)OCCC(CCCCC)CCCCC)CCN(CC)CC (stereo not shown) [Example 125, 3-Pentyloctyl 3-ethyl-12-hexyl-6-(2-(octanoyloxy)ethyl)-10-oxo-9,11-dioxa-3,6-diazahenicosan-21-oate] | 5%
11 | 74.9 nm | 82% | 68.3 nm | 76% | CCCCCCCCCC(=O)OCCN(CCOC(=O)OC(CCCCCC)CCCCCCCCC(=O)OCC(CCCCCC)CCCCCCCC)CCN(CC)CC (stereo not shown) [Example 98, 2-Hexyldecyl 6-(2-(decanoyloxy)ethyl)-3-ethyl-12-hexyl-10-oxo-9,11-dioxa-3,6-diazahenicosan-21-oate] | 2%
12 | 75.0 nm | 69% | 66.5 nm | 76% | CCCCCCCC/C=C\CCCCCCCC(=O)OCCN(CCOC(=O)OC(CCCCCC)CCCCCCCCC(=O)OCC(CCCC)CCCCCC)CCN(CC)CC (stereo not shown) [Example 91, 2-Butyloctyl 3-ethyl-12-hexyl-6-(2-(oleoyloxy)ethyl)-10-oxo-9,11-dioxa-3,6-diazahenicosan-21-oate] | 9%
13 | 94.2 nm | 87% | 67.9 nm | 100% | CCCCC/C=C\C/C=C\CCCCCCCCC(CCCCCCCC/C=C\C/C=C\CCCCC)OC(=O)OCCN(CCCC)CCN(C)C [Example 38, 2-(Butyl(2-(dimethylamino)ethyl)amino)ethyl((6Z,9Z,28Z,31Z)-heptatriaconta-6,9,28,31-tetraen-19-yl)carbonate] | 16%
14 | 67.1 nm | 74% | 69.2 nm | 88% | CCCCCCCCCCCC(=O)OCCN(CCOC(=O)OC(CCCCCC)CCCCCCCCC(=O)OCC(CCCC)CCCCCC)CCN(CC)CC (stereo not shown) [Example 86, 2-butyloctyl 6-(2-(dodecanoyloxy)ethyl)-3-ethyl-12-hexyl-10-oxo-9,11-dioxa-3,6-diazahenicosan-21-oate] | 15%
